Source: PubChem BioAssay AID248 (DTP/NCI, 2004)
“And” between values parts separate entries of the source, which are not always exact repeats. Equal entries are not always repeated. Inconclusive results and toxic doses are left out.

Test system: L1210 leukemia ip in BDF1 mice, survival T/C
Test: NCI In Vivo Anticancer Drug Screen. Data for tumor model L1210 Leukemia (intraperitoneal) in B6D2F1 (BDF1) mice
Details: endpoint: mean survival time, higher = longer survival
Procedure, shortened: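 Antitumor effect is assessed in tumor-bearing animals. Survival in the compound arm is compared with a vehicle-dosed control arm and expressed as their quotient.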

[1] = dose: 100.0 mg/kg/injection, schedule: Q04DX002 (ip), vehicle: carboxymethylcellulose (CMC)
[2] = dose: 100.0 mg/kg/injection, schedule: Q04DX003 (ip), vehicle: carboxymethylcellulose (CMC)
[3] = dose: 200.0 mg/kg/injection, schedule: Q04DX002 (ip), vehicle: carboxymethylcellulose (CMC)
[4] = dose: 200.0 mg/kg/injection, schedule: Q04DX003 (ip), vehicle: carboxymethylcellulose (CMC)
[5] = dose: 400.0 mg/kg/injection, schedule: Q04DX002 (ip), vehicle: carboxymethylcellulose (CMC)
[6] = dose: 100.0 mg/kg/injection, schedule: Q01DX001 (ip), vehicle: carboxymethylcellulose (CMC)
[7] = dose: 200.0 mg/kg/injection, schedule: Q01DX001 (ip), vehicle: carboxymethylcellulose (CMC)
[8] = dose: 400.0 mg/kg/injection, schedule: Q01DX001 (ip), vehicle: carboxymethylcellulose (CMC)

O=C(NO)c1ccccc1O
T/C (dose: 85.0 mg/kg/injection, schedule: Q03HX032 (ip), vehicle: other): 97 % of control | T/C (dose: 100.0 mg/kg/injection, schedule: Q01DX009 (ip), vehicle: Klucel (hydroxypropylcellulose) (HPC)): 104 % of control | T/C [1]: 98 % of control and 108 % of control | T/C [2]: 101 % of control and 118 % of control | T/C (dose: 130.0 mg/kg/injection, schedule: Q03HX032 (ip), vehicle: other): 102 % of control | T/C (dose: 200.0 mg/kg/injection, schedule: Q01DX009 (ip), vehicle: Klucel (hydroxypropylcellulose) (HPC)): 112 % of control | T/C (dose: 200.0 mg/kg/injection, schedule: Q01DX015 (ip), vehicle: other): 105 % of control | T/C (dose: 200.0 mg/kg/injection, schedule: Q03HX032 (ip), vehicle: other): 105 % of control | T/C [3]: 98 % of control and 108 % of control | T/C [4]: 99 % of control and 103 % of control | T/C (dose: 266.0 mg/kg/injection, schedule: Q01DX009 (ip), vehicle: saline): 97 % of control | T/C (dose: 300.0 mg/kg/injection, schedule: Q01DX015 (ip), vehicle: other): 93 % of control | T/C (dose: 300.0 mg/kg/injection, schedule: Q03HX032 (ip), vehicle: other): 121 % of control | T/C (dose: 400.0 mg/kg/injection, schedule: Q01DX009 (ip), vehicle: Klucel (hydroxypropylcellulose) (HPC)): 105 % of control | T/C (dose: 400.0 mg/kg/injection, schedule: Q01DX009 (ip), vehicle: saline): 97 % of control | T/C [5]: 96 % of control and 104 % of control | T/C (dose: 400.0 mg/kg/injection, schedule: Q04DX003 (ip), vehicle: carboxymethylcellulose (CMC)): 105 % of control | T/C (dose: 450.0 mg/kg/injection, schedule: Q01DX015 (ip), vehicle: other): 108 % of control | T/C (dose: 450.0 mg/kg/injection, schedule: Q03HX032 (ip), vehicle: other): 208 % of control | T/C (dose: 600.0 mg/kg/injection, schedule: Q01DX009 (ip), vehicle: saline): 104 % of control | T/C (dose: 670.0 mg/kg/injection, schedule: Q01DX015 (ip), vehicle: other): 86 % of control | T/C (dose: 900.0 mg/kg/injection, schedule: Q01DX009 (ip), vehicle: saline): 104 % of control

CC(=O)C1=CC2(OC3CCC(O)(C(=O)CO)C(C)O3)C(=O)c3c(cc4cccc(O)c4c3O)CC2C(O)C1O (centres undefined)
T/C (dose: 3.12 mg/kg/injection, schedule: Q01DX001 (ip), vehicle: carboxymethylcellulose (CMC)): 114 % of control | T/C (dose: 6.25 mg/kg/injection, schedule: Q01DX001 (ip), vehicle: carboxymethylcellulose (CMC)): 100 % of control | T/C (dose: 12.5 mg/kg/injection, schedule: Q01DX001 (ip), vehicle: carboxymethylcellulose (CMC)): 104 % of control | T/C (dose: 25.0 mg/kg/injection, schedule: Q01DX001 (ip), vehicle: carboxymethylcellulose (CMC)): 106 % of control | T/C (dose: 50.0 mg/kg/injection, schedule: Q01DX001 (ip), vehicle: carboxymethylcellulose (CMC)): 115 % of control | T/C (dose: 50.0 mg/kg/injection, schedule: Q01DX015 (ip), vehicle: carboxymethylcellulose (CMC)): 102 % of control | T/C [6]: 111 % of control | T/C (dose: 100.0 mg/kg/injection, schedule: Q01DX015 (ip), vehicle: carboxymethylcellulose (CMC)): 102 % of control | T/C [7]: 100 % of control | T/C (dose: 200.0 mg/kg/injection, schedule: Q01DX015 (ip), vehicle: carboxymethylcellulose (CMC)): 93 % of control | T/C [8]: 97 % of control | T/C (dose: 400.0 mg/kg/injection, schedule: Q01DX015 (ip), vehicle: carboxymethylcellulose (CMC)): 93 % of control

CCCOC(=O)c1ccc(OC(=O)NC)cc1
T/C [6]: 92 % of control | T/C (dose: 100.0 mg/kg/injection, schedule: Q01DX009 (ip), vehicle: carboxymethylcellulose (CMC)): 101 % of control and 106 % of control | T/C [1]: 102 % of control and 112 % of control | T/C [2]: 102 % of control | T/C [7]: 102 % of control | T/C (dose: 200.0 mg/kg/injection, schedule: Q01DX009 (ip), vehicle: carboxymethylcellulose (CMC)): 109 % of control and 88 % of control | T/C [3]: 97 % of control and 102 % of control | T/C [4]: 91 % of control | T/C [8]: 96 % of control | T/C [5]: 94 % of control and 102 % of control
